The subject of assay [1] is IL-4 stimulated expression of CD23 in human Ramos B cells (JAK-1 and JAK-3). Kind of assay: Assay for Ramos B-Cell Line Stimulated with IL-4 (CD23 upregulation, FACS). The note with it: read-out: IC50, Example 41. It counts as cell-based. Summed up: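 Read-out: anti-CD23-PE flow cytometry on Ramos B cells, giving IC50. Cells (5×10^4 per point, RPMI + 5% serum) get compound or DMSO for 1 h at 37 °C, then IL-4 50 units/mL final for 20-24 h.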

The test system of assay [2] is up-regulation of ICAM-1 (CD54) by IFNγ in U937 human monocytic cells. Kind of assay: U937 IFNγ ICAM1 FACS Assay. It counts as cell-based. The following applies: Homo sapiens, U-937, U937 cells stimulated with IFNγ, ICAM-1 expression by FACS; read-out: IC50, Example 44. A digest of the protocol: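 Readout was the geometric-mean APC anti-ICAM-1 signal by FACS on live U937 monocytic cells, with % live cells also recorded. Cells were exposed to compounds (8 points, 3-fold dilutions, duplicates) for 30 min at 37 °C before 18–24 h of IFNγ stimulation. EC50 values were computed from the dose curve.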
A general note: In flow cytometry, cells or beads pass a laser one at a time.

Where [3] appears, read: Ramos B cells stimulated with IL-4, CD23 expression by FACS.
Where [4] appears, read: Homo sapiens, Ramos, Ramos B-cell line stimulated with IL-4, CD23 expression by FACS.

Where two headings read alike, the source gives them in different places.

As for `COc1ccc(CN2C(=O)C(C)Oc3ccc(Nc4nc(Nc5ccc(S(N)(=O)=O)cc5)ncc4F)cc32)cc1` (racemic) [Compound V-4, Racemic N2-(4-Aminosulphonylphenyl)-5-fluoro-N4-[2-methyl-3-oxo-4-(4-methoxybenzyl)-benz[1,4]oxazin-6-yl]-2,4-pyrimidinediamine], in assay [1] (setting [3]), the IC50 – broadly, the concentration at which inhibition is half-maximal – turned out to be 108 nM.
On to `COc1cc(Nc2nc(Nc3ccc(S(N)(=O)=O)cc3)ncc2F)cc(OCC#N)c1OC` [Compound I-1, N2-(4-Aminosulphonylphenyl)-N4-(3-cyanomethoxy-4,5-dimethoxyphenyl)-5-fluoro-2,4-pyrimidinediamine], for which the values for the IC50 in assay [1] (setting [4]) and in assay [2] were 366 nM and 35300 nM, respectively.
On the same counts, the results for `N#CCOc1ccc(Nc2nc(Nc3ccc(S(N)(=O)=O)cc3)ncc2F)cc1F` [Compound I-44, N2-(4-Aminosulfonylphenyl)-N4-(4-cyanomethoxy-3-fluorophenyl)-5-fluoro-2,4-pyrimidinediamine] are 53.2 nM and 5070 nM.
On the same counts, the results for `COc1cc(Nc2nc(Nc3ccc(S(N)(=O)=O)cc3)ncc2F)ccc1OCC#N` [Compound I-45, N2-(4-Aminosulfonylphenyl)-N4-(4-cyanomethoxy-3-methoxyphenyl)-5-fluoro-2,4-pyrimidinediamine] are 104 nM and 3640 nM.
As to `COc1cc(Nc2nc(Nc3cccc(S(N)(=O)=O)c3)ncc2F)ccc1OCC#N` [Compound I-46, N2-(3-Aminosulfonylphenyl)-N4-(4-cyanomethoxy-3-methoxyphenyl)-5-fluoro-2,4-pyrimidinediamine], the IC50 in assay [1] (setting [4]) was 113 nM; in assay [2] it was 751 nM.
On the same counts, the results for `COc1cc(Nc2nc(Nc3ccc(C)c(S(N)(=O)=O)c3)ncc2F)ccc1OCC#N` [Compound I-47, N2-(3-Aminosulfonyl-4-methylphenyl)-N4-(4-cyanomethoxy-3-methoxyphenyl)-5-fluoro-2,4-pyrimidinediamine] are 120 nM and 759 nM.
On the same counts, the results for `Cc1ccc(Nc2ncc(F)c(Nc3ccc(OCC#N)c(CO)c3)n2)cc1S(N)(=O)=O` [Compound I-51, N2-(3-Aminosulfonyl-4-methylphenyl)-N4-(4-cyanomethoxy-3-hydroxymethylphenyl)-5-fluoro-2,4-pyrimidinediamine] are 263 nM and 32200 nM.
On the same counts, the results for `N#CCOc1ccc(Nc2nc(Nc3ccc(S(N)(=O)=O)cc3)ncc2F)cc1-c1ccn(CC#N)n1` [Compound I-52, N2-(4-Aminosulfonylphenyl)-N4-[4-cyanomethoxy-3-(1-cyanomethylpyrazol-3-yl)phenyl]-5-fluoro-2,4-pyrimidinediamine] are 152 nM and 68700 nM.
For `COc1ccc(Nc2ncc(F)c(Nc3ccc(OCC#N)cc3)n2)cc1S(N)(=O)=O` [Compound I-56, N2-(3-Aminosulfonyl-4-methoxyphenyl)-N4-(4-cyanomethoxyphenyl)-5-fluoro-2,4-pyrimidinediamine], the IC50 in assay [1] (setting [4]) is 104 nM; in assay [2], 424 nM.
`Cc1cnc(Nc2cccc(S(N)(=O)=O)c2)nc1Nc1ccc(OCC#N)cc1` [Compound I-58, N2-(3-Aminosulfonylphenyl)-N4-(4-cyanomethoxyphenyl)-5-methyl-2,4-pyrimidinediamine]: the values for the IC50 in assay [1] (setting [4]) and in assay [2] were 5.05 nM and 66 nM, respectively.
On the same counts, the results for `Cc1ccc(Nc2ncc(C)c(Nc3ccc(OCC#N)cc3)n2)cc1S(N)(=O)=O` [Compound I-59, N2-(3-Aminosulfonyl-4-methylphenyl)-N4-(4-cyanomethoxyphenyl)-5-methyl-2,4-pyrimidinediamine] are 6.55 nM and 57.7 nM.
On the same counts, the results for `NC(=O)COc1ccc(Nc2nc(Nc3ccc(S(N)(=O)=O)cc3)ncc2F)cc1Cl` [Compound I-97, N4-(4-Aminocarbonylmethoxy-3-chlorophenyl)-N2-(4-aminosulfonylphenyl)-5-fluoro-2,4-pyrimidinediamine] are 212 nM and 27400 nM.
On the same counts, the results for `NC(=O)COc1ccc(Nc2nc(Nc3cccc(S(N)(=O)=O)c3)ncc2F)cc1Cl` [Compound I-98, N4-(4-Aminocarbonylmethoxy-3-chlorophenyl)-N2-(3-aminosulfonylphenyl)-5-fluoro-2,4-pyrimidinediamine] are 295 nM and 11000 nM.
In the case of `Cc1ccc(Nc2ncc(F)c(Nc3ccc(OCC(N)=O)c(Cl)c3)n2)cc1S(N)(=O)=O` [Compound I-99, N4-(4-Aminocarbonylmethoxy-3-chlorophenyl)-N2-(3-aminosulfonyl-4-methylphenyl)-5-fluoro-2,4-pyrimidinediamine], the values for the IC50 in assay [1] (setting [4]) and in assay [2] were 68.6 nM and 3780 nM, respectively.
On the same counts, the results for `NC(=O)COc1ccc(Nc2nc(Nc3cccc(S(N)(=O)=O)c3)ncc2F)cc1F` [Compound I-101, N4-(4-Aminocarbonylmethoxy-3-fluorophenyl)-N2-(3-aminosulfonylphenyl)-5-fluoro-2,4-pyrimidinediamine] are 328 nM and 36600 nM.
On the same counts, the results for `Cc1ccc(Nc2ncc(F)c(Nc3ccc(OCC(N)=O)c(F)c3)n2)cc1S(N)(=O)=O` [Compound I-102, N4-(4-Aminocarbonylmethoxy-3-fluorophenyl)-N2-(3-aminosulfonyl-4-methylphenyl)-5-fluoro-2,4-pyrimidinediamine] are 219 nM and 15600 nM.
Take `Cc1cnc(Nc2ccc(S(N)(=O)=O)cc2)nc1Nc1ccc(OCC(N)=O)cc1` [Compound I-108, N4-(4-Aminocarbonylmethoxyphenyl)-N2-(4-aminosulfonylphenyl)-5-methyl-2,4-pyrimidinediamine]: the figures for the IC50 in assay [1] (setting [4]) and in assay [2] were 145 nM and 3970 nM, respectively.
On the same counts, the results for `Cc1cnc(Nc2cccc(S(N)(=O)=O)c2)nc1Nc1ccc(OCC(N)=O)cc1` [Compound I-109, N4-(4-Aminocarbonylmethoxyphenyl)-N2-(3-aminosulfonylphenyl)-5-methyl-2,4-pyrimidinediamine] are 305 nM and 9940 nM.
On the same counts, the results for `Cc1ccc(Nc2ncc(C)c(Nc3ccc(OCC(N)=O)cc3)n2)cc1S(N)(=O)=O` [Compound I-110, N4-(4-Aminocarbonylmethoxyphenyl)-N2-(3-aminosulfonyl-4-methylphenyl)-5-methyl-2,4-pyrimidinediamine] are 358 nM and 3930 nM.
On the same counts, the results for `CN(C)C(=O)COc1ccc(Nc2nc(Nc3ccc(S(N)(=O)=O)cc3)ncc2F)cc1Cl` [Compound I-131, N2-(4-Aminosulfonylphenyl)-N4-(3-chloro-4-dimethylaminocarbonylmethoxyphenyl)-5-fluoro-2,4-pyrimidinediamine] are 262 nM and 2990 nM.
As for `CN(C)C(=O)COc1ccc(Nc2nc(Nc3cccc(S(N)(=O)=O)c3)ncc2F)cc1Cl` [Compound I-132, N2-(3-Aminosulfonylphenyl)-N4-(3-chloro-4-dimethylaminocarbonylmethoxyphenyl)-5-fluoro-2,4-pyrimidinediamine], the IC50 in assay [1] (setting [4]) came out at 351 nM; in assay [2], 2720 nM.
On the same counts, the results for `Cc1cnc(Nc2ccc(S(N)(=O)=O)cc2)nc1Nc1ccc(OCC(=O)N(C)C)c(Cl)c1` [Compound I-134, N2-(4-Aminosulfonylphenyl)-N4-(3-chloro-4-dimethylaminocarbonylmethoxyphenyl)-5-methyl-2,4-pyrimidinediamine] are 178 nM and 3240 nM.
On the same counts, the results for `Cc1cnc(Nc2cccc(S(N)(=O)=O)c2)nc1Nc1ccc(OCC(=O)N(C)C)c(Cl)c1` [Compound I-135, N2-(3-Aminosulfonylphenyl)-N4-(3-chloro-4-dimethylaminocarbonylmethoxyphenyl)-5-methyl-2,4-pyrimidinediamine] are 112 nM and 1830 nM.
On the same counts, the results for `Cc1ccc(Nc2ncc(C)c(Nc3ccc(OCC(=O)N(C)C)c(Cl)c3)n2)cc1S(N)(=O)=O` [Compound I-136, N2-(3-Aminosulfonyl-4-methylphenyl)-N4-(3-chloro-4-dimethylaminocarbonylmethoxyphenyl)-5-methyl-2,4-pyrimidinediamine] are 132 nM and 1640 nM.
Consider `Cc1cnc(Nc2ccc(Cl)c(S(N)(=O)=O)c2)nc1Nc1ccc(OCC(=O)N(C)C)c(Cl)c1` [Compound I-141, N2-(3-Aminosulfonyl-4-chlorophenyl)-N4-(3-chloro-4-dimethylaminocarbonylmethoxyphenyl)-5-methyl-2,4-pyrimidinediamine], for which the IC50 in assay [1] (setting [4]) stood at 162 nM.
In the case of `NS(=O)(=O)c1ccc(Nc2ncc(F)c(Nc3ccc(OCCN4CCOCC4)cc3)n2)cc1` [Compound I-205, N2-(4-Aminosulfonylphenyl)-5-fluoro-N4-[4-(2-morpholinoethyloxy)phenyl)-2,4-pyrimidinediamine], the IC50 in assay [1] (setting [4]) was determined as 315 nM.
On to `COC(=O)c1ccc(Nc2nc(Nc3ccc(F)c(S(N)(=O)=O)c3)ncc2F)s1` [IX-48, N2-(3-Aminosulfonyl-4-fluorophenyl)-5-fluoro-N4-(5-methoxycarbonyl-thiophene-2-yl)-2,4-pyrimidinediamine], for which the IC50 in assay [1] (Homo sapiens, Ramos, Ramos B cells stimulated with IL-4, CD23 expression by FACS) was found to be 258 nM.
As to “N4-(3,4-Dichlorophenyl)-5-fluoro-N2-[3-(4-methylpipendin-1-yl)aminosulfonylphenyl]-2,4-pyrimidinediamine [VI-10]”, in assay [1] (setting [3]), the IC50 was found to be 220 nM.

(Values after US11827628B2, “Compositions and methods for inhibition of the JAK pathway” (Rigel Pharmaceuticals, Inc., priority 2005, dated 2023).)
